In test [1] the target is T1, Wild-Type PLA2 (Sus scrofa, UniProt P00592).
T1 construct: made in house
Kind of test: Decylsulfate binding to wild-type PLA2 (3W), Trp emission. More on the design: species or system pig. How it is done: (§1) Fluorescence emission spectrum or time course of the intensity change from tryptophan or the resonance energy transfer probe TMA-DPH were measured in the ratio mode on SLM-Aminco AB2 in a 1 cm cuvette [31, 32] in 1.6 ml stirred buffer containing 1 or 2 μM PLA2 in 10 mM Tris, 5 mM CaCl2 and 20 mM NaCl at pH 8.0 and 24° C. The slit-widths were 4 nm with excitation at 280.
(§2) For example, as summarized in Table 3, the main effect of the presence of bile salt is on the Trp-signal intensities rather than the dissociation constant for decylsulfate.

Test [2] deals with T2, PLA2 W3F/R6W mutant (Sus scrofa, UniProt P00592, R28W/W25F).
T2 construct: made in house
T2 sequence (P00592 23-146 W25F/R28W): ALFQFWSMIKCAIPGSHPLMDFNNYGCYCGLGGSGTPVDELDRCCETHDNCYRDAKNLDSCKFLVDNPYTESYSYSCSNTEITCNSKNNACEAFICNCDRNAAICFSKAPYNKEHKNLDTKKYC
Kind of test: Decylsulfate binding to W3F/R6W mutant PLA2 (6W), Trp emission. The arrangement: species or system pig. How it is done: as §1, §2

The target of test [3] is T3, WT (wild type) pig PLA2 (Sus scrofa, UniProt P00592).
T3 construct: made in house
T3 sequence (P00592 23-146): as the sequence (P00592 23-146 W25F/R28W) above, with F3W, W6R counted along it
Kind of test: PLA2 catalyzed hydrolysis of sonicated DMPC vesicles with added bile salt (pH-stat). The note with it: DMPC vesicles, pancreatic PLA2. Type of test: biochemical. How it is done: Aqueous dispersion of phospholipid was sonicated in a bath type sonicator. Virtually transparent suspension was annealed for at least 4 hours at room temperature before use. Reaction progress for the PLA2 catalyzed hydrolysis of sonicated DMPC (1 mM) vesicles was measured by pH-stat titration (Radiometer) with 1 mM 2-aminopropanediol in 4 ml reaction buffer containing 5 mM CaCl2 for DMPC (or 0.5 mM for DMPM), 1 mM NaCl, […] atmosphere. Reaction was initiated by adding 0.1 μg enzyme in 1-10 μl solution. The pH stat method was also used for monitoring the rate of hydrolysis of DMPM (0.4 mM) vesicles in the presence of polymyxin [27-29], or of the mixed-micelles of POPC with bile salts in 1:2 ratio [13, 30].
Delay before the onset of the stationary phase of the PLA2 catalyzed reaction progress for the hydrolysis of zwitterionic phospholipids has been extensively characterized. […] The apparent rates in FIG. 3 were obtained from the initial slopes of such reaction progress during which <5% of the total substrate is hydrolyzed.
The CMC of the bile salts used in this study range between 0.8 to 5 mM.

Test [4] concerns the target T4, human pancreatic IB PLA2 (Homo sapiens, UniProt P04054).
T4 construct: gift of Dr. Suren Tatulian (Orlando, Fla.)
Nature of the test: Rate-lowering of hydrolysis of DMPC + 0.05 mole fraction cholate vesicles by human pancreatic PLA2. It counts as biochemical. The conditions noted are these: 0.03 mole fraction; DMPC + 0.05 mole fraction cholate. An excerpt: (§3) Independent support for selective binding of the rate lowering compounds to a regulatory site on PLA2 comes from the rate-lowering effect of such compounds on the hydrolysis of DMPC vesicles containing 0.05 mole fraction cholate.
(§4) Scores of other compounds in guggul were not active.

Test [5] addresses T5, pig pancreatic IB PLA2 (Sus scrofa, UniProt P00592).
T5 construct: made in house
Kind of test: Rate-lowering of hydrolysis of DMPC + 0.05 mole fraction cholate vesicles by pig pancreatic PLA2. It counts as biochemical. The note with it: for Relative Rate-lowering (%) Activity, pPLA2: 0.03 mole fraction, DMPC + 0.05 mole fraction cholate.
Description: as §3, §4

Test [6] addresses T6, PLA2 (Sus scrofa, UniProt P00592).
T6 construct: made in house
Kind of test: Isothermal calorimetric titration of PLA2 with bile salt. The note with it: ITC, 8.5 μM PLA2; read-out: KEB. It counts as binding, pig. How it is done: ITC titration of PLA2 with <1 mM (below the CMC) bile salt stock solution was carried out on the Microcal calorimeter (model VP-itc) with cell volume of 1.42 ml with stirring at 300 rpm. Successive injections were made every 5 min. Standard software was used for the peak integration. The heat change with the internal calibration associated with the dilution of the titrant in the […] was subtracted from the heat change obtained by the injection of the bile salt in the presence of 8.5 μM PLA2. The net heat change per injection in the presence of PLA2 was integrated to obtain the total heat change as a function of the total added amphiphile concentration.
(Isothermal titration calorimetry measures the heat released or taken up as one component is titrated into another.)

In test [7] the target is T6, PLA2. Kind of test: Quenching of RET signal from TMA-DPH bound to PLA2 by bile salts. Type of test: binding, pig. The conditions noted are these: 1 μM PLA2 and TMA-DPH, pH 8.0. How it is done: as §1

pKd: −log10 of the molar value. Several values for one entry are separate records, joined by “and”; a condition that tells them apart may be missing. Equal values may be shown once. Read-outs that look alike come from different tables or passages of the source.

T4 sequence (P04054 23-148): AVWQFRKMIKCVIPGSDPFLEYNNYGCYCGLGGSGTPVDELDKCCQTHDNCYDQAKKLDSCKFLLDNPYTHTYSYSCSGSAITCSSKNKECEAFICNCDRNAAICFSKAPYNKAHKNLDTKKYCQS
T1 sequence (P00592 23-146): as the sequence (P00592 23-146 W25F/R28W) above, with F3W, W6R counted along it
T5 sequence (P00592 23-146): as the sequence (P00592 23-146 W25F/R28W) above, with F3W, W6R counted along it
T6 sequence (P00592 23-146): as the sequence (P00592 23-146 W25F/R28W) above, with F3W, W6R counted along it

As to `CCCCCCCCCCOS(=O)(=O)O` [Decylsulfate], the a1 decylsulfate binding is recorded as −0.03 in test [1] (3W + 0.2 mM TCDOC); 0.10 in test [1] (3W + Chol (0.2 mM cholate)); 0.26 in test [1] (3W, no additive); −0.07 in test [2] (6W); −0.09 in test [2] (6W + 0.2 mM TCDOC). For the same molecule, the a2 decylsulfate binding in test [1] (3W + 0.2 mM TCDOC) was −0.07; in test [1] (3W, no additive), 0.56; in test [2] (6W), −0.36; in test [2] (6W + 0.2 mM TCDOC), −1.1. In addition, the n2 decylsulfate binding in test [1] (3W + 0.2 mM TCDOC) stood at 6; in test [1] (3W, no additive), 8; in test [2] (6W) it was 2.5; in test [2] (6W + 0.2 mM TCDOC) it was 2.0. For the same molecule, the pKd in test [1] (3W + 0.2 mM TCDOC, read-out: K2^# decylsulfate binding) is 3.27; in test [1] (3W + Chol (0.2 mM cholate), read-out: K1^# decylsulfate binding), 4.30; in test [1] (3W, no additive, read-out: K1^# decylsulfate binding) it was 4.22; in test [1] (3W, no additive, read-out: K2^# decylsulfate binding), 3.19; in test [2] (6W + 0.2 mM TCDOC, read-out: K2^# decylsulfate binding), 3.19; in test [2] (6W, read-out: K1^# decylsulfate binding) it was 4.30. For the same molecule, the pKd in test [2] (6W, read-out: K2^# decylsulfate binding) is 3.29. The n1 decylsulfate binding in test [1] (3W + Chol (0.2 mM cholate)) was 1.5; in test [1] (3W, no additive), 1.8 and 1.7; in test [2] (6W), 2.7.

`C[C@H](CCC(=O)NCC(=O)O)[C@H]1CC[C@H]2[C@@H]3CC[C@@H]4C[C@H](O)CC[C@]4(C)[C@H]3C[C@H](O)[C@]12C` [GDOC, glycodeoxycholate]: in test [3], the “effect of bile salt on the rate of hydrolysis (monophasic/biphasic)” value (“effect of bile salt … (monophasic/biphasic)” below) is “biphasic effect”.

On to `CC=C1C(O)C[C@H]2[C@@H]3CCC4=CC(=O)CC[C@]4(C)[C@H]3CC[C@]12C` (stereo partly drawn) [Gugguloster-3-one-16-ol], for which, in test [4], the “Relative Rate-lowering (%) Activity, hPLA2” value turned out to be 56%. The “Relative Rate-lowering (%) Activity, pPLA2” value in test [5] was 90%.

As for `C/C=C1\C(=O)C[C@H]2[C@@H]3CCC4=CC(=O)CC[C@]4(C)[C@H]3CC[C@]12C` [Guggulosterone], in test [4], the “Relative Rate-lowering (%) Activity, hPLA2” value came to 53%. The “Relative Rate-lowering (%) Activity, pPLA2” value in test [5] is given as 85%.

Turning to `CC(=CCCC(C)C1CCC2(C)C3=CCC4C(C)(C)C(O)CCC4(C)C3CCC12C)C(=O)O` (stereo not drawn) [Masticadienolic acid], the “Relative Rate-lowering (%) Activity, hPLA2” value in test [4] came out at 66%. Further, the “Relative Rate-lowering (%) Activity, pPLA2” value in test [5] is listed as >95%. Further, the “relative effectiveness in lowering the rate with pig pancreatic PLA2” value in test [5] (DMPC vesicles containing 0.05 mole fraction cholate, FIG. 6) is listed as “effective by another factor of ten”.

`C[C@H](CCC(=O)NCCS(=O)(=O)O)[C@H]1CC[C@H]2[C@@H]3[C@@H](O)C[C@@H]4C[C@H](O)CC[C@]4(C)[C@H]3CC[C@]12C` [TUDOC, tauroursodeoxycholate]: the pKd in test [6] is > 5.70. For the same molecule, the “efficacy to quench RET signal from TMA-DPH bound to PLA2” value in test [7] is recorded as “most effective”. In addition, the “effect of bile salt … (monophasic/biphasic)” value in test [3] is “biphasic effect”.

As to `C[C@H](CCC(=O)O)[C@H]1CC[C@H]2[C@@H]3[C@@H](O)C[C@@H]4C[C@H](O)CC[C@]4(C)[C@H]3CC[C@]12C` [UDOC, ursodeoxycholate], in test [6], the pKd was 4.42 to 5.70 and 4.43.

For the molecule `C[C@H](CCC(=O)NCC(=O)O)[C@H]1CC[C@H]2[C@@H]3[C@H](O)C[C@@H]4C[C@H](O)CC[C@]4(C)[C@H]3C[C@H](O)[C@]12C` [glycocholate], in test [3], the “effect of bile salt … (monophasic/biphasic)” value is on record as “biphasic effect”.

Values taken from patent US20080139520A1, “Altering cholesterol and fat uptake by novel allosteric inhibitors of pancreatic phospholipase A2” (priority 2006, published 2008).
